The values that follow come from ChEMBL document CHEMBL4296182, “CO-ADD screening of NIH NCI Diversity Set V”.

For one test, the system named is HEK293. The test is described as follows: cells. It counts as functional. The settings on record: Homo sapiens, ATCC CRL1573, HEK293; ASSAY_TEST Inhibition of Cell Viability; detection method Resazurin; Fluorescence (ex560/em590); MEDIA DMEM with 10% FBS; plate type 384well; TC; CORNING #3712; time 18 hr.
Another test concerns Staphylococcus aureus. The test is described as follows: microbe, parasite or virus in culture. The settings on record: ATCC 43300, 18 h, ASSAY_TEST Inhibition of Bacterial Growth, detection method Absorption (OD600), MEDIA CAMHB, plate type 384well, NBS, CORNING #3640.
The next test deals with Escherichia coli. The test is described as follows: microbe, parasite or virus in culture. The settings on record: ATCC 25922, 18 h, ASSAY_TEST Inhibition of Bacterial Growth, detection method Absorption (OD600), MEDIA CAMHB, plate type 384well, NBS, CORNING #3640.
Another test relates to Klebsiella pneumoniae. The test is described as follows: microbe, parasite or virus in culture. To be noted: ATCC 700603, 18 h, ASSAY_TEST Inhibition of Bacterial Growth, detection method Absorption (OD600), MEDIA CAMHB, plate type 384well, NBS, CORNING #3640.
Another test concerns Pseudomonas aeruginosa. The test is described as follows: microbe, parasite or virus in culture. The settings on record: ATCC 27853, 18 h, ASSAY_TEST Inhibition of Bacterial Growth, detection method Absorption (OD600), MEDIA CAMHB, plate type 384well, NBS, CORNING #3640.
For a further test, the system named is Acinetobacter baumannii. The test is described as follows: microbe, parasite or virus in culture. The settings on record: ATCC 19606, 18 h, ASSAY_TEST Inhibition of Bacterial Growth, detection method Absorption (OD600), MEDIA CAMHB, plate type 384well, NBS, CORNING #3640.
Another test concerns Candida albicans. The test is described as follows: microbe, parasite or virus in culture. The settings on record: ATCC 90028, ASSAY_TEST Inhibition of Fungal Growth, detection method Absorption (OD530), plate type 384well, NBS, CORNING #3640.

Values after ≈ are worked out from the molar mass of the structure shown. Bounds are passed on as bounds.

Description for Acinetobacter baumannii: Antibacterial activity against Acinetobacter baumannii ATCC 19606 (CO-ADD:GN_034); MIC in CAMBH media using NBS plates, by OD600
Description for Candida albicans: Antifungal activity against Candida albicans ATCC 90028 (CO-ADD:FG_001); MIC in YNB media using NBS plates, by OD630
Description for Cryptococcus neoformans: Antifungal activity against Cryptococcus neoformans H99 ATCC 208821 (CO-ADD:FG_002); MIC in YNB media using NBS plates, by Resazurin OD(600-570)
Description for Escherichia coli: Antibacterial activity against Escherichia coli ATCC 25922 (CO-ADD:GN_001); MIC in CAMBH media using NBS plates, by OD(600)
Description for Klebsiella pneumoniae: Antibacterial activity against Klebsiella pneumoniae MDR ATCC 70063 (CO-ADD:GN_003); MIC in CAMBH media using NBS plates, by OD(600)
Description for Pseudomonas aeruginosa: Antibacterial activity against Pseudomonas aeruginosa ATCC 27853 (CO-ADD:GN_042); MIC in CAMBH media using NBS plates, by OD(600)
Description for Staphylococcus aureus: Antibacterial activity against Staphylococcus aureus MRSA ATCC 43300 (CO-ADD:GP_020); MIC in CAMBH media, using NBS plates, by OD(600)

On to `Cc1cc2cc3c(O)nc(O)nc3nc2cc1C`, for which the CC50 in the test with HEK293 was greater than 10 µM. Besides, the MIC with Cryptococcus neoformans, with Staphylococcus aureus, against Escherichia coli, in the test on Klebsiella pneumoniae, in the test with Pseudomonas aeruginosa and with Acinetobacter baumannii was greater than 10 µM each time. Besides, the MIC in the test on Candida albicans is greater than 10 µM.

In the case of `O=[N+]([O-])c1cc(F)c2cccnc2c1O`, the CC50 with HEK293 was greater than 10 µM. In addition, the MIC was 10 µM (≈ 2.08 µg/mL) in the test on Cryptococcus neoformans; greater than 10 µM in the test on Staphylococcus aureus; greater than 10 µM in the test on Escherichia coli; greater than 10 µM in the test with Klebsiella pneumoniae; greater than 10 µM in the test on Pseudomonas aeruginosa; greater than 10 µM against Acinetobacter baumannii. The molecule further yielded an MIC in the test on Candida albicans of 10 µM (≈ 2.08 µg/mL).

In the test on HEK293, `Cc1cc2nc(CS)[nH]c2cc1C` displayed a CC50 greater than 10 µM. The MIC with Cryptococcus neoformans, against Staphylococcus aureus, in the test with Escherichia coli, against Klebsiella pneumoniae, against Pseudomonas aeruginosa and in the test on Acinetobacter baumannii was greater than 10 µM in each case. Also, in the test with Candida albicans, the MIC is greater than 10 µM.

In turn, `O=[N+]([O-])c1cnc(Sc2ccncn2)s1` yielded a CC50 in the test on HEK293 greater than 10 µM. Moreover, the MIC in the test on Cryptococcus neoformans is 5 µM (≈ 1.2 µg/mL); with Staphylococcus aureus it was greater than 10 µM; against Escherichia coli it was greater than 10 µM; against Klebsiella pneumoniae, greater than 10 µM; with Pseudomonas aeruginosa, greater than 10 µM; against Acinetobacter baumannii, greater than 10 µM. Also, the MIC against Candida albicans came out at 5 µM (≈ 1.2 µg/mL).

In the test with HEK293, `O=C1C=C(c2ccccc2)OC(=O)C1C(=O)c1ccccc1` (stereo not given) came in with a CC50 greater than 10 µM. Also, the MIC against Cryptococcus neoformans, against Staphylococcus aureus, against Escherichia coli, in the test with Klebsiella pneumoniae, against Pseudomonas aeruginosa and in the test with Acinetobacter baumannii was greater than 10 µM each time. Moreover, the MIC in the test with Candida albicans was greater than 10 µM.

In the case of `Cc1ccccc1NC(=O)NCCN1CC1`, the CC50 in the test with HEK293 was greater than 10 µM. Also, the MIC in the test with Cryptococcus neoformans, with Staphylococcus aureus, against Escherichia coli, in the test on Klebsiella pneumoniae, in the test with Pseudomonas aeruginosa and with Acinetobacter baumannii was greater than 10 µM throughout. Further, in the test on Candida albicans, the MIC was greater than 10 µM.

Take `O=Cc1ccc(O)c2ncccc12`: in the test on HEK293, the CC50 was greater than 10 µM. In addition, the MIC against Cryptococcus neoformans is 1.25 µM (≈ 0.216 µg/mL); in the test on Staphylococcus aureus it was greater than 10 µM; with Escherichia coli, greater than 10 µM; against Klebsiella pneumoniae it was greater than 10 µM; in the test with Pseudomonas aeruginosa it was greater than 10 µM; with Acinetobacter baumannii it was greater than 10 µM. The molecule also returned an MIC with Candida albicans of 0.625 µM (≈ 0.108 µg/mL).

Turning to `Sc1nc2cc(-c3ccccc3)ccc2o1`, in the test on HEK293, the CC50 was greater than 10 µM. Also, the MIC against Cryptococcus neoformans, with Staphylococcus aureus, in the test on Escherichia coli, against Klebsiella pneumoniae, with Pseudomonas aeruginosa and against Acinetobacter baumannii was greater than 10 µM throughout. Moreover, the MIC in the test on Candida albicans was greater than 10 µM.

With `Sc1ncnc2c1ncn2C1CCCO1` (stereo not given), the half-maximal cytotoxic concentration (CC50) in the test on HEK293 is greater than 10 µM. For the same molecule, the MIC against Cryptococcus neoformans, with Staphylococcus aureus, against Escherichia coli, in the test with Klebsiella pneumoniae, in the test with Pseudomonas aeruginosa and against Acinetobacter baumannii was greater than 10 µM throughout. In the test with Candida albicans, this molecule came in with an MIC greater than 10 µM.

Consider `O=C(c1cccnc1)C1Cc2ccccc2C1=O` (stereo not given), for which the 50% cytotoxic concentration (CC50) in the test on HEK293 is greater than 10 µM. For the same molecule, the MIC was greater than 10 µM against Cryptococcus neoformans; greater than 10 µM in the test with Staphylococcus aureus; greater than 10 µM against Escherichia coli; 5 µM (≈ 1.19 µg/mL) against Klebsiella pneumoniae; greater than 10 µM against Pseudomonas aeruginosa; greater than 10 µM against Acinetobacter baumannii. Further, in the test with Candida albicans, the MIC was greater than 10 µM.

Molecule `CN1CCN(c2ccc([N+](=O)[O-])c3no[n+]([O-])c23)CC1` showed a CC50 in the test with HEK293 of 0.755 µM. Further, the MIC with Cryptococcus neoformans is greater than 10 µM; against Staphylococcus aureus, 2.5 µM (≈ 0.698 µg/mL); in the test with Escherichia coli, greater than 10 µM; against Klebsiella pneumoniae, greater than 10 µM; in the test with Pseudomonas aeruginosa it was greater than 10 µM; with Acinetobacter baumannii it was greater than 10 µM. The molecule also yielded an MIC against Candida albicans greater than 10 µM.

In the test with HEK293, `Cn1c2ccccc2c2ccc3c(c21)C(=O)C=CC3=O` registered a half-maximal cytotoxic concentration (CC50) greater than 10 µM. Besides, the MIC in the test on Cryptococcus neoformans, with Staphylococcus aureus, against Escherichia coli, with Klebsiella pneumoniae, against Pseudomonas aeruginosa and against Acinetobacter baumannii was greater than 10 µM throughout. The same molecule displayed an MIC with Candida albicans greater than 10 µM.

`CSc1nc(C)c(Br)c(N2CC2)n1` returned a CC50 with HEK293 greater than 10 µM. Besides, the MIC in the test on Cryptococcus neoformans, against Staphylococcus aureus, against Escherichia coli, in the test with Klebsiella pneumoniae, in the test on Pseudomonas aeruginosa and in the test with Acinetobacter baumannii was greater than 10 µM in each case. Besides, the MIC in the test with Candida albicans was greater than 10 µM.

In the test on HEK293, `COc1ccccc1/C=C/C(=O)/C=C/c1ccccc1O` yielded a 50% cytotoxic concentration (CC50) of 3.95 µM. The MIC against Cryptococcus neoformans, against Staphylococcus aureus, with Escherichia coli, against Klebsiella pneumoniae, with Pseudomonas aeruginosa and against Acinetobacter baumannii was greater than 10 µM throughout. This molecule also had an MIC in the test with Candida albicans greater than 10 µM.

`CN(C)c1ccc(/N=N/c2ccccn2)cc1` registered a 50% cytotoxic concentration (CC50) with HEK293 greater than 10 µM. Also, the MIC in the test on Cryptococcus neoformans, with Staphylococcus aureus, with Escherichia coli, with Klebsiella pneumoniae, in the test with Pseudomonas aeruginosa and with Acinetobacter baumannii was greater than 10 µM each time. The molecule further had an MIC against Candida albicans of 10 µM (≈ 2.26 µg/mL).

For the molecule `Oc1ccc2ccccc2c1/N=N/c1nccs1`, the 50% cytotoxic concentration (CC50) in the test on HEK293 is greater than 10 µM. Moreover, the MIC with Cryptococcus neoformans is 2.5 µM (≈ 0.638 µg/mL); in the test on Staphylococcus aureus, greater than 10 µM; in the test with Escherichia coli, greater than 10 µM; with Klebsiella pneumoniae it was greater than 10 µM; against Pseudomonas aeruginosa, greater than 10 µM; in the test on Acinetobacter baumannii it was greater than 10 µM. Besides, in the test with Candida albicans, the MIC stood at 10 µM (≈ 2.55 µg/mL).

In the test with HEK293, `Cc1ccc2ccc(C#N)cc2c1O` came in with a cytotoxic concentration (CC50) greater than 10 µM. Moreover, the MIC in the test on Cryptococcus neoformans, in the test with Staphylococcus aureus, against Escherichia coli, against Klebsiella pneumoniae, against Pseudomonas aeruginosa and against Acinetobacter baumannii was greater than 10 µM throughout. The same molecule displayed an MIC in the test with Candida albicans greater than 10 µM.

Consider `O=[N+]([O-])c1cc([N+](=O)[O-])c2cccnc2c1O`, for which, in the test with HEK293, the half-maximal cytotoxic concentration (CC50) was greater than 10 µM. Moreover, the MIC against Cryptococcus neoformans, in the test on Staphylococcus aureus, against Escherichia coli, in the test with Klebsiella pneumoniae, in the test with Pseudomonas aeruginosa and against Acinetobacter baumannii was greater than 10 µM throughout. In addition, the MIC in the test on Candida albicans worked out at 10 µM (≈ 2.35 µg/mL).

Turning to `O=[N+]([O-])c1ccc(/C=[N+](\[O-])CCO)o1`, the CC50 with HEK293 is greater than 10 µM. Also, the MIC in the test with Cryptococcus neoformans was greater than 10 µM; with Staphylococcus aureus, greater than 10 µM; against Escherichia coli it was 10 µM (≈ 2 µg/mL); against Klebsiella pneumoniae, greater than 10 µM; in the test on Pseudomonas aeruginosa, greater than 10 µM; against Acinetobacter baumannii, greater than 10 µM. In the test on Candida albicans, this molecule yielded an MIC greater than 10 µM.

`CC1(C)CC(=O)CC(C)(C)N1O` returned a CC50 in the test with HEK293 greater than 10 µM. Also, the MIC in the test on Cryptococcus neoformans, in the test with Staphylococcus aureus, against Escherichia coli, against Klebsiella pneumoniae, against Pseudomonas aeruginosa and in the test on Acinetobacter baumannii was greater than 10 µM each time. In the test on Candida albicans, this molecule gave an MIC greater than 10 µM.

Molecule `Oc1c(/N=N/c2nnn[nH]2)ccc2ccccc12` registered a CC50 with HEK293 greater than 10 µM. The MIC in the test on Cryptococcus neoformans, with Staphylococcus aureus, against Escherichia coli, against Klebsiella pneumoniae, with Pseudomonas aeruginosa and against Acinetobacter baumannii was greater than 10 µM in each case. The MIC against Candida albicans was greater than 10 µM.

In turn, `C1C2CC3C1C3/C2=N\N=C1/C2CC3C(C2)C13` showed a CC50 in the test on HEK293 greater than 10 µM. Besides, the MIC in the test with Cryptococcus neoformans, against Staphylococcus aureus, against Escherichia coli, in the test on Klebsiella pneumoniae, against Pseudomonas aeruginosa and in the test on Acinetobacter baumannii was greater than 10 µM each time. In addition, the MIC in the test on Candida albicans was greater than 10 µM.

Take `CNc1ncn(-c2c(C)cccc2C)c(=O)n1`: the CC50 in the test on HEK293 was greater than 10 µM. Further, the MIC with Cryptococcus neoformans, against Staphylococcus aureus, in the test on Escherichia coli, against Klebsiella pneumoniae, with Pseudomonas aeruginosa and in the test on Acinetobacter baumannii was greater than 10 µM in each case. The molecule further gave an MIC against Candida albicans greater than 10 µM.

In the test on HEK293, `Cc1nc(/N=N/c2ccccc2)[nH]c1/N=N/c1ccccc1` came in with a half-maximal cytotoxic concentration (CC50) greater than 10 µM. The MIC against Cryptococcus neoformans, with Staphylococcus aureus, in the test with Escherichia coli, in the test with Klebsiella pneumoniae, with Pseudomonas aeruginosa and against Acinetobacter baumannii was greater than 10 µM each time. The molecule also had an MIC in the test on Candida albicans greater than 10 µM.

In the test on HEK293, `CCC(C)c1cnc(CC(C)C)c(=O)n1O` (stereo not given) registered a CC50 greater than 10 µM. Also, the MIC against Cryptococcus neoformans, against Staphylococcus aureus, against Escherichia coli, in the test on Klebsiella pneumoniae, against Pseudomonas aeruginosa and with Acinetobacter baumannii was greater than 10 µM throughout. In the test with Candida albicans, this molecule showed an MIC greater than 10 µM.
